# Reference: ChEMBL document CHEMBL3044825, “Synthesis and in vitro microbial activities of amides of pyridoquinolone” (2011)
# Key:
# Format in all cases: functional
# Settings in all cases: read-out: IZ
# Candida albicans = assay: Antifungal activity against Candida albicans at 100 ug/ml by cup-plate method
# Bacillus subtilis = assay: Antibacterial activity against Bacillus subtilis at 100 ug/ml by cup plate method
# Staphylococcus aureus = assay: Antibacterial activity against Staphylococcus aureus at 100 ug/ml by cup-plate method
# Pseudomonas aeruginosa = assay: Antibacterial activity against Pseudomonas aeruginosa at 100 ug/ml by cup-plate method
# Escherichia coli = assay: Antibacterial activity against Escherichia coli at 100 ug/ml by cup-plate method
Structure (SMILES),zone of inhibition at 100 µg/mL (Candida albicans) [mm],zone of inhibition at 100 µg/mL (Bacillus subtilis) [mm],zone of inhibition at 100 µg/mL (Staphylococcus aureus) [mm],zone of inhibition at 100 µg/mL (Pseudomonas aeruginosa) [mm],zone of inhibition at 100 µg/mL (Escherichia coli) [mm]
Cc1ccccc1NC(=S)NC(=O)c1cn(CCO)c2c(cc(Cl)c3ncccc32)c1=O,2,8,6,4,0
COc1ccccc1NC(=O)c1cn(CCO)c2c(cc(O)c3ncccc32)c1=O,1,8,6,0,6
O=C(Nc1ccc(S(=O)(=O)Nc2ccc(Cl)cc2)cc1)c1cn(CCO)c2c(cc(Cl)c3ncccc32)c1=O,1,7,6,0,8
O=C(Nc1ccccc1)c1cn(CCO)c2c(cc(O)c3ncccc32)c1=O,1,6,7,8,8
COc1ccccc1NC(=O)c1cn(CCO)c2c(cc(Cl)c3ncccc32)c1=O,3,10,9,8,8
O=C(Nc1ccc(S(=O)(=O)Nc2cccc([N+](=O)[O-])c2)cc1)c1cn(CCO)c2c(cc(Cl)c3ncccc32)c1=O,2,8,6,5,7
Cc1cccc(NC(=S)NC(=O)c2cn(CCO)c3c(cc(Cl)c4ncccc43)c2=O)c1,4,9,10,10,11
